Like-named read-outs stand apart in the source and are kept apart here.
Key:
[1] = tested on: JeKo-1 cells; assay: Antiproliferative effect, MTS cell viability assay, JeKo-1 cells; type: cell-based; conditions: JeKo-1 mantle cell lymphoma cells, read-out: IC50 (anti-proliferation) JeKO-1 cells
Procedure, shortened: (§1)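 Steps: seed B-cell lymphoma line; add compound at 0, 0.001, 0.01, 0.1, 1 or 10 μM; incubate 72 h; add MTS and read reduced tetrazolium (formazan) absorbance at 490 nm.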

[2] = molecular target: BTK (Homo sapiens, UniProt Q06187); assay: Degradation of BTK protein in Namalwa cells (Western blot; DC50, Dmax); conditions: for DC50: cell line not given
[3] = tested on: Mino cells; assay: Antiproliferative effect, MTS cell viability assay, Mino cells; type: cell-based; conditions: Mino mantle cell lymphoma cells, read-out: IC50 (anti-proliferation) Mino cells
Procedure, shortened: as §1

[4] = read-out: DC50 (BTK degradation), concentration giving 50% reduction of BTK expression level
[5] = read-out: Dmax (BTK degradation)

Sequence of BTK (Q06187 whole entry): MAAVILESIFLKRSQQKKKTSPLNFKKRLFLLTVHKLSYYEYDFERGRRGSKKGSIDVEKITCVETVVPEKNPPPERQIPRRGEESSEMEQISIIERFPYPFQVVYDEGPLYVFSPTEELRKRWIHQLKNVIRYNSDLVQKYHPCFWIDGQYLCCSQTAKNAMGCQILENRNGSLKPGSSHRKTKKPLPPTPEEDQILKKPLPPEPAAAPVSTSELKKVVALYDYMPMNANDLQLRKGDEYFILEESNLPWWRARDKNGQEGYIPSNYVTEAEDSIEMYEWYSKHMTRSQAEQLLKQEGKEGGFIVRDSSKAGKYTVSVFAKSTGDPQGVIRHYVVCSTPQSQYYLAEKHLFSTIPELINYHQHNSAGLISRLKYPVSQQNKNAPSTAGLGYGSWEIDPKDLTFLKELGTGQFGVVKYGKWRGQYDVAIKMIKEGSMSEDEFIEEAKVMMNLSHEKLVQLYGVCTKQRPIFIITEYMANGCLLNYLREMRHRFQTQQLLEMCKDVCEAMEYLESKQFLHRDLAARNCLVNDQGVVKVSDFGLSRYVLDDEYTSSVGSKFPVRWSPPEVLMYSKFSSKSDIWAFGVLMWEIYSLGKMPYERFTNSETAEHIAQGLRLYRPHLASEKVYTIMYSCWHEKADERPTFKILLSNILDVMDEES

| Structure (SMILES) | IC50 ([1]; Homo sapiens) [nM] | Dmax [2] [%] | DC50 ([2]; BTK degradation) [nM] | IC50 ([3]; Homo sapiens, MINO) [nM] | DC50 [2, 4] [nM] | Dmax [2, 5] [%] | IC50 [1] [nM] | degradation of BTK protein ([2]; Namalwa B lymphocyte cells, various concentrations, 24 hours, Western blot) | IC50 [3] [nM] | IC50 ([3]; Homo sapiens) [nM] |
| --- | --- | --- | --- | --- | --- | --- | --- | --- | --- | --- |
| NC(=O)c1c(-c2ccc(Oc3ccccc3)cc2)nn2c1NCCC2C1CCN(C2CCN(CCC3CCN(c4ccc5c(c4)CN(C4CCC(=O)NC4=O)C5=O)CC3)CC2)CC1 (centres unmarked) [Compound 310, 7-(1′-(2-(1-(2-(2,6-dioxopiperidin-3-yl)-1-oxoisoindolin-5-yl)piperidin-4-yl)ethyl)-[1,4′-bipiperidin]-4-yl)-2-(4-phenoxyphenyl)-4,5,6,7-tetrahydropyrazolo[1,5-a]pyrimidine-3-carboxamide] | > 10000 | > 75 | 10 to 50 | > 10000 |  |  |  |  |  |  |
| NC(=O)c1c(-c2ccc(Oc3ccccc3)cc2)nn2c1NCCC2C1CCN(CC2CCN(CCN3CCC(c4ccc5c(c4)CN(C4CCC(=O)NC4=O)C5=O)CC3)CC2)CC1 (centres unmarked) [Compound 320, 7-(1-((1-(2-(4-(2-(2,6-dioxopiperidin-3-yl)-1-oxoisoindolin-5-yl)piperidin-1-yl)ethyl)piperidin-4-yl)methyl)piperidin-4-yl)-2-(4-phenoxyphenyl)-4,5,6,7-tetrahydropyrazolo[1,5-a]pyrimidine-3-carboxamide] | 1000 to 10000 | > 90 | 10 to 50 | 1000 to 10000 |  |  |  |  |  |  |
| NC(=O)c1c(-c2ccc(Oc3ccccc3)cc2)nn2c1NCCC2C1CCN(C(=O)N2CCN(CC3CCN(c4ccc5c(c4)C(=O)N(C4CCC(=O)NC4=O)C5=O)CC3)CC2)CC1 (centres unmarked) [Compound 273, 7-(1-(4-((1-(2-(2,6-dioxopiperidin-3-yl)-1,3-dioxoisoindolin-5-yl)piperidin-4-yl)methyl)piperazine-1-carbonyl)piperidin-4-yl)-2-(4-phenoxyphenyl)-4,5,6,7-tetrahydropyrazolo[1,5-a]pyrimidine-3-carboxamide] | 1000 to 10000 | > 90 | 10 to 50 | < 1000 |  |  |  |  |  |  |
| NC(=O)c1c(-c2ccc(Oc3ccccc3)cc2)nn2c1NCCC2C1CCN(CC2CCN(CCN3CCN(c4ccc5c(c4)CN(C4CCC(=O)NC4=O)C5=O)CC3)CC2)CC1 (centres unmarked) [Compound 316, 7-(1-((1-(2-(4-(2-(2,6-dioxopiperidin-3-yl)-1-oxoisoindolin-5-yl)piperazin-1-yl)ethyl)piperidin-4-yl)methyl)piperidin-4-yl)-2-(4-phenoxyphenyl)-4,5,6,7-tetrahydropyrazolo[1,5-a]pyrimidine-3-carboxamide] | 1000 to 10000 | > 75 | 10 to 50 | 1000 to 10000 |  |  |  |  |  |  |
| NC(=O)c1c(-c2ccc(Oc3ccccc3)cc2)nn2c1NCC[C@H]2C1CCN(CC2CCN(C(=O)N3CCC(N4CCN(c5ccc6c(c5)C(=O)N(C5CCC(=O)NC5=O)C6=O)CC4)CC3)CC2)CC1 (stereo partly drawn) [Compound 403, (7S)-7-(1-((1-(4-(4-(2-(2,6-dioxopiperidin-3-yl)-1,3-dioxoisoindolin-5-yl)piperazin-1-yl)piperidine-1-carbonyl)piperidin-4-yl)methyl)piperidin-4-yl)-2-(4-phenoxyphenyl)-4,5,6,7-tetrahydropyrazolo[1,5-a]pyrimidine-3-carboxamide] | < 1000 |  |  | < 1000 | 10 to 50 | > 90 |  |  |  |  |
| Nc1ncnc2c1c(-c1ccc(Oc3ccccc3)cc1)nn2C1CCN(C2CCN(CCCN3CCN(c4ccc(N5CCC(=O)NC5=O)cc4)CC3)CC2)CC1 [Compound 572, 1-(4-(4-(3-(4-(4-amino-3-(4-phenoxyphenyl)-1H-pyrazolo[3,4-d]pyrimidin-1-yl)-[1,4′-bipiperidin]-1′-yl)propyl)piperazin-1-yl)phenyl)dihydropyrimidine-2,4(1H,3H)-dione] | < 1000 |  |  | < 1000 | 10 to 50 | > 90 |  |  |  |  |
| Nc1ncnc2c1c(-c1ccc(Oc3ccccc3)cc1)nn2C1CCN(CC2CN(CC3CCN(c4ccc5c(c4)CN(C4CCC(=O)NC4=O)C5=O)CC3)C2)CC1 (centres unmarked) [Compound 440] | 1000 to 10000 |  |  | < 1000 | < 10 | > 90 |  |  |  |  |
| NC(=O)c1c(-c2ccc(Oc3ccccc3)cc2)nn2c1NCCC2C1CCN(C2CCN(C(=O)N3CCC(C4CCN(c5ccc6c(c5)C(=O)N(C5CCC(=O)NC5=O)C6=O)CC4)CC3)CC2)CC1 (centres unmarked) [Compound 343, 7-(1′-(1′-(2-(2,6-dioxopiperidin-3-yl)-1,3-dioxoisoindolin-5-yl)-[4,4′-bipiperidine]-1-carbonyl)-[1,4′-bipiperidin]-4-yl)-2-(4-phenoxyphenyl)-4,5,6,7-tetrahydropyrazolo[1,5-a]pyrimidine-3-carboxamide] | < 1000 | > 90 | < 10 | 1000 to 10000 |  |  |  |  |  |  |
| Nc1ncnc2c1c(-c1ccc(Oc3ccccc3)cc1)nn2C1CCN(CCOCCOCCN2CCC(c3ccc4c(c3)C(=O)N(C3CCC(=O)NC3=O)C4=O)CC2)CC1 (centres unmarked) [Compound 418, 5-(1-(2-(2-(2-(4-(4-amino-3-(4-phenoxyphenyl)-1H-pyrazolo[3,4-d]pyrimidin-1-yl)piperidin-1-yl)ethoxy)ethoxy)ethyl)piperidin-4-yl)-2-(2,6-dioxopiperidin-3-yl)isoindoline-1,3-dione] |  |  |  |  | < 10 | > 90 | 1000 to 10000 | dose-dependent degradation | 1000 to 10000 |  |
| Nc1ncnc2c1c(-c1ccc(Oc3ccccc3)cc1)nn2C1CCN(CC2CN(C[C@H]3CCN(c4ccc5c(c4)C(=O)N(C4CCC(=O)NC4=O)C5=O)C3)C2)CC1 (stereo partly drawn) [Compound 443a, 5-((R)-3-((3-((4-(4-amino-3-(4-phenoxyphenyl)-1H-pyrazolo[3,4-d]pyrimidin-1-yl)piperidin-1-yl)methyl)azetidin-1-yl)methyl)pyrrolidin-1-yl)-2-(2,6-dioxopiperidin-3-yl)isoindoline-1,3-dione] | < 1000 |  |  | < 1000 | < 10 | > 90 |  |  |  |  |
| Nc1ncnc2c1c(-c1ccc(Oc3ccccc3)cc1)nn2[C@@H]1CCCN(CC2CCN(CC3CCN(c4ccc(C(=O)NC5CCC(=O)NC5=O)cc4)CC3)CC2)C1 (stereo partly drawn) [Compound 515, 4-(4-((4-(((R)-3-(4-amino-3-(4-phenoxyphenyl)-1H-pyrazolo[3,4-d]pyrimidin-1-yl)piperidin-1-yl)methyl)piperidin-1-yl)methyl)piperidin-1-yl)-N-(2,6-dioxopiperidin-3-yl)benzamide] | 1000 to 10000 |  |  | < 1000 | < 10 | > 90 |  |  |  |  |
| NC(=O)c1c(-c2ccc(Oc3ccccc3)cc2)nn2c1NCC[C@H]2C1CCN(CC2CCN(CCC3CCN(c4ccc5c(c4)CN(C4CCC(=O)NC4=O)C5=O)CC3)CC2)CC1 (stereo partly drawn) [Compound 334, (7S)-7-(1-((1-(2-(1-(2-(2,6-dioxopiperidin-3-yl)-1-oxoisoindolin-5-yl)piperidin-4-yl)ethyl)piperidin-4-yl)methyl)piperidin-4-yl)-2-(4-phenoxyphenyl)-4,5,6,7-tetrahydropyrazolo[1,5-a]pyrimidine-3-carboxamide] | > 10000 | > 75 | 10 to 50 | > 10000 |  |  |  |  |  |  |
| Nc1ncnc2c1c(-c1ccc(Oc3ccccc3)cc1)nn2C1CCN(CCN2CCC(CN3CCN(c4ccc5c(c4)C(=O)N(C4CCC(=O)NC4=O)C5=O)CC3)C2)CC1 (centres unmarked) [Compound 455, 5-(4-((1-(2-(4-(4-amino-3-(4-phenoxyphenyl)-1H-pyrazolo(3,4-d)pyrimidin-1-yl)piperidin-1-yl)ethyl)pyrrolidin-3-yl)methyl)piperazin-1-yl)-2-(2,6-dioxopiperidin-3-yl)isoindoline-1,3-dione] | < 1000 |  |  |  | < 10 | > 90 |  |  |  | < 1000 |
| NC(=O)c1c(-c2ccc(Oc3ccccc3)cc2)nn2c1NCC[C@H]2C1CCN(CC2CCN(CCN3CCC(c4ccc5c(c4)CN(C4CCC(=O)NC4=O)C5=O)CC3)CC2)CC1 (stereo partly drawn) [Compound 336, (7S)-7-(1-((1-(2-(4-(2-(2,6-dioxopiperidin-3-yl)-1-oxoisoindolin-5-yl)piperidin-1-yl)ethyl)piperidin-4-yl)methyl)piperidin-4-yl)-2-(4-phenoxyphenyl)-4,5,6,7-tetrahydropyrazolo[1,5-a]pyrimidine-3-carboxamide] | 1000 to 10000 | > 75 | 10 to 50 | 1000 to 10000 |  |  |  |  |  |  |
| Nc1ncnc2c1c(-c1ccc(Oc3ccccc3)cc1)nn2C1CCN(CCCN2CCC(CN3CCN(c4ccc(N5CCC(=O)NC5=O)cc4)CC3)CC2)CC1 [Compound 556, 1-(4-(4-((1-(3-(4-(4-amino-3-(4-phenoxyphenyl)-1H-pyrazolo[3,4-d]pyrimidin-1-yl)piperidin-1-yl)propyl)piperidin-4-yl)methyl)piperazin-1-yl)phenyl)dihydropyrimidine-2,4(1H,3H)-dione] | < 1000 |  |  | < 1000 | < 10 | > 90 |  |  |  |  |
| NC(=O)c1c(-c2ccc(Oc3ccccc3)cc2)nn2c1NCC[C@H]2C1CCN(C2CCN(C(=O)N3CCC(CC4CCN(c5ccc6c(c5)C(=O)N(C5CCC(=O)NC5=O)C6=O)CC4)CC3)CC2)CC1 (stereo partly drawn) [Compound 393, (7S)-7-(1′-(4-((1-(2-(2,6-dioxopiperidin-3-yl)-1,3-dioxoisoindolin-5-yl)piperidin-4-yl)methyl)piperidine-1-carbonyl)-[1,4′-bipiperidin]-4-yl)-2-(4-phenoxyphenyl)-4,5,6,7-tetrahydropyrazolo[1,5-a]pyrimidine-3-carboxamide] | 1000 to 10000 |  |  | 1000 to 10000 | 10 to 50 | > 75 |  |  |  |  |

Source: US12139492B2 (Endotarget Inc., priority 2021, dated 2024)
